Measurements taken from patent US7597904B2, “Metalloproteinase inhibitory agent” (Nestec S.A., priority 2004, dated 2009).

Columns and labels:
HT-29 cells [1] = assay: Proliferation assay of HT-29 cells with caseinate hydrolysates and fractions (neutral red, OD 540 nm); format: cell-based, human
Description: Culture of Human Intestinal Epithelial Cells (IECs) and Proliferation Assay
• Human colonic adenocarcinoma cell line HT29 (ATCC: HTB-38) from the American Type Culture Collection (ATCC, Manassas, Va.). • DMEM, high glucose (4.5 g/l), with stable glutamine (BioConcept, AMIMED, Allschwil, Switzerland)
Undifferentiated cells (passages 45-78) were maintained in glucose-containing DMEM supplemented with 10% FCS at 37° C. in a 5% CO2/air incubator. Culture medium was changed every two days until the cell monolayers reached 50% confluence. For stimulation assays, HT-29 cells were plated at 1.2*10^4 cells/well in 96-well flat-bottom plates. After incubation for 4 days, the amount of cells present in the wells before incubation with the samples was assessed adding neutral red solution in 4 wells and incubating the plate for 45 min. The HT-29 cells were then washed twice with serum-free media (inclusive the wells with neutral red solution). The wells colored with neutral red remained from now on free of any media.
HT-29 cells were then incubated 24 hours respectively in the presence of 80 μg (hydrolysed) sodium caseinate samples in 200 μl DMEM, in 200 μl serum-free medium (blank), in 200 μl medium with serum (positive control) or in 0.9% saline solution (negative control). […] The dye was finally extracted with 100 μl of an extraction solution and the optical density measured at 540 nm. The optical density measured correlates with the number of cells present in the wells.
The proliferation was calculated by the difference in absorbance between the cells having been incubated 24 hours with sodium caseinate samples, with serum-free medium, with medium containing serum or with 0.9% saline solution and the cells before incubation.
The difference in absorbance ΔA540 from the blank (cells incubated with serum-free medium) was normalized. The results were then expressed as percentage with respect to the blank. • Culture medium with serum: DMEM was supplemented with 10% decomplemented FCS and 1% Penicillin-Streptomycin. […]

HT-29 cells [2] = assay: Lactate dehydrogenase cytotoxicity test; format: cell-based, human; details: Table 4; HT-29, LDH released, 24 hours incubation
Description: Lactate Dehydrogenase Cytotoxicity Test
Cell viability was rigorously measured according the manufacturer's recommendations (Roche Diagnostics). The test is based on the measurement of lactate dehydrogenase (LDH) activity released from the cytosol of damaged cells in the supernatant.
Most current assays for measuring cytotoxicity are based on alterations of plasma membrane permeability and the consequent release of cytoplasmic enzymes or the uptake of dyes, normally excluded by viable cells. We here chose to measure the lactate dehydrogenase (LDH) activity released from damaged cells.

## sodium caseinate
HT-29 cells [1]; HT-29 cells
  antiproliferative activity (in words): no activity
HT-29 cells [1]; Table 2, HT-29, 24 hours incubation, 80 μg sample in 200 μl DMEM
  % prolif (percentage of OD at 540 nm with respect to the control (−serum)): 93 +/− 12%
HT-29 cells [1]; Table 3, HT-29, active fraction with or without heat / enzyme treatment (alcalase, proteinase A)
  % prolif (percentage of OD at 540 nm with respect to the control (−serum)): 93 +/− 7%
HT-29 cells [2]
  cytotoxic potential, percentage of OD at 490 nm with respect to the control (lysate); row head % prolif: 9 +/− 3%
